Laboratory results taken from the NIST ThermoML archive (doi:10.1016/j.jct.2014.10.014).

Experiment: mn = molality of the nth substance listed, in mol/kg
Details: 100 kPa, Liquid, Alternating current cell with electrodes

C[C@H](CCC(=O)[O-])[C@H]1CC[C@H]2[C@@H]3CC[C@@H]4C[C@H](O)CC[C@]4(C)[C@H]3C[C@H](O)[C@]12C.[Na+] [sodium deoxycholate] + O
electrical conductivity [S/m]
Details	293.15 K	298.15 K	303.15 K	308.15 K	313.15 K	318.15 K
m1 = 0.0005	0.003	0.0035	0.004	0.0035	0.0035	0.004
m1 = 0.001	0.0065	0.0065	0.007	0.0065	0.0065	0.007
m1 = 0.0015	0.0095	0.0095	0.01	0.0095	0.01	0.01
m1 = 0.002	0.0125	0.0125	0.013	0.0124	0.0128	0.013
m1 = 0.0025	0.0155	0.0155	0.016	0.0153	0.016	0.016
m1 = 0.003	0.0185	0.0182	0.0191	0.0185	0.019	0.019
m1 = 0.0035	0.021	0.0213	0.0218	0.022	0.022	0.022
m1 = 0.004	0.0242	0.0243	0.0248	0.025	0.0245	0.025
m1 = 0.0045	0.027	0.0275	0.0274	0.028	0.028	0.028
m1 = 0.005	0.03	0.0305	0.0305	0.031	0.0305	0.031
m1 = 0.0055	0.033	0.0335	0.0335	0.0335	0.0335	0.034
m1 = 0.006	0.0355	0.036	0.0358	0.0365	0.0365	0.037
m1 = 0.0065	0.038	0.0385	0.038	0.0385	0.0385	0.04
m1 = 0.007	0.0399	0.0405	0.0405	0.041	0.0405	0.0425
m1 = 0.0075	0.042	0.0425	0.043	0.0435	0.0425	0.045
m1 = 0.008	0.044	0.0445	0.0455	0.0455	0.045	0.0475
m1 = 0.0085	0.046	0.0465	0.048	0.048	0.0475	0.05
m1 = 0.009	0.048	0.0485	0.0499	0.05	0.0499	0.0525
m1 = 0.0095	0.05	0.051	0.052	0.0525	0.0519	0.055
m1 = 0.01	0.0518	0.053	0.054	0.055	0.0539	0.0575

C[C@H](CCC(=O)[O-])[C@H]1CC[C@H]2[C@@H]3[C@H](O)C[C@@H]4C[C@H](O)CC[C@]4(C)[C@H]3C[C@H](O)[C@]12C.[Na+] [sodium cholate] + O
electrical conductivity [S/m]
Details	293.15 K	298.15 K	303.15 K	308.15 K	313.15 K	318.15 K
m1 = 0.001	0.0066	0.007	0.005	0.007	0.0075	0.0115
m1 = 0.002	0.0129	0.014	0.0115	0.014	0.014	0.0175
m1 = 0.003	0.019	0.0204	0.018	0.02	0.02	0.0235
m1 = 0.004	0.0254	0.0267	0.0242	0.0263	0.0265	0.0305
m1 = 0.005	0.031	0.0326	0.0308	0.0332	0.0332	0.0369
m1 = 0.006	0.0378	0.0386	0.0373	0.0397	0.0395	0.043
m1 = 0.007	0.0434	0.0442	0.0439	0.0454	0.0466	0.0497
m1 = 0.008	0.0503	0.0498	0.0503	0.0524	0.0533	0.0565
m1 = 0.009	0.0558	0.0562	0.057	0.0584	0.06	0.0633
m1 = 0.01	0.0628	0.063	0.0635	0.0653	0.0668	0.0705
m1 = 0.011	0.0689	0.0687	0.07	0.0735	0.0745	0.0779
m1 = 0.012	0.0754	0.0753	0.076	0.0798	0.0815	0.0855
m1 = 0.013	0.0827	0.0825	0.082	0.0861	0.0885	0.093
m1 = 0.014	0.0881	0.088	0.0873	0.0911	0.0939	0.0985
m1 = 0.015	0.0929	0.0928	0.093	0.0967	0.0995	0.104
m1 = 0.016	0.0985	0.097	0.0981	0.102	0.104	0.111
m1 = 0.017	0.103	0.101	0.103	0.108	0.11	0.117
m1 = 0.018	0.107	0.105	0.108	0.113	0.115	0.122
m1 = 0.019	0.111	0.109	0.113	0.118	0.12	0.127
m1 = 0.02	0.115	0.112	0.118	0.123	0.126	0.132
